Results: patent US9809583B2 (priority 2014, dated 2017)

Each compound was assayed against androgen receptor (hAR) (Homo sapiens (Human), UniProt P10275) (assay: Test of transcriptional activity (hAR / ARE-Luc dual-luciferase assay in CHO cells)). Settings: CHO cells with hAR and ARE-Luc, 24 hours; 10 nM DHT = 100%; read-out: EC50 [nM] (mean ± SE).
androgen receptor (hAR), sequence (P10275 whole entry): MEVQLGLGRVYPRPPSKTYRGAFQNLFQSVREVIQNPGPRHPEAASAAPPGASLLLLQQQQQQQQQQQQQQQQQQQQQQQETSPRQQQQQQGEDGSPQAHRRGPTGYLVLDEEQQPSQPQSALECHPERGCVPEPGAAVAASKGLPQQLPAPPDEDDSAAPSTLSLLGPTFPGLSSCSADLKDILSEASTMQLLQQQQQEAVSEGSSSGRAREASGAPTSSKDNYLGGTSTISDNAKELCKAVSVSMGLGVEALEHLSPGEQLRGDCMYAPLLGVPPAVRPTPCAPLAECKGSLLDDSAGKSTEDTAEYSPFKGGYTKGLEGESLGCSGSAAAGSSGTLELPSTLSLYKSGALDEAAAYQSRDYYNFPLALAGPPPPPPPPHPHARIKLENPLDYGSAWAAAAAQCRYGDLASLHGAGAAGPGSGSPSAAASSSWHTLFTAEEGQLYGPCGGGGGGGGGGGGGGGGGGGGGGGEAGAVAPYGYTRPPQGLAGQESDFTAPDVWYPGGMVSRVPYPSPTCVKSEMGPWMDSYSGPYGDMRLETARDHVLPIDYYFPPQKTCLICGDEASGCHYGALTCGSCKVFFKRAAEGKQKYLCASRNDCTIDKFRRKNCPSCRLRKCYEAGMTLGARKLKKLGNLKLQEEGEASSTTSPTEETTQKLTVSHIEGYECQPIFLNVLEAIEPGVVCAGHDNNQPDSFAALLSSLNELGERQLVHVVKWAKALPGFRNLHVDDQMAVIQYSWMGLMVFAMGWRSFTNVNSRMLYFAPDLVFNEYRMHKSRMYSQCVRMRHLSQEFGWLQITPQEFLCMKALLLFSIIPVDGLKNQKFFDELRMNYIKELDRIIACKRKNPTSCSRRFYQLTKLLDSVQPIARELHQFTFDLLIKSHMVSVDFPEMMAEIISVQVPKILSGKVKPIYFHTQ
Type: cell-based
Protocol: In order to examine the transcriptional activity of the agonists of the present invention, the following in-vitro experiment was performed. CHO (Chinese hamster ovary) cell line (ATCC, #CCL-61) was seeded in a 96-well plate at a density of 1.5×10^4 cells/well, and cultured for 24 hours. Then, a plasmid hAR and plasmid ARE-Luc-mixed medium was added thereto. The transfected cell line was treated with 0.1˜10,000 nM of SARM derivatives, and then allowed to react for 24 hours.
With `Cc1cc(N2C[C@@H](COc3ccc(C#N)cc3)O[C@@H]2C(F)(F)F)ccc1[N+](=O)[O-]` [Example 53, 4-(((2R,5S)-3-(3-methyl-4-nitrophenyl)-2-(trifluoromethyl)oxazolidin-5-yl)methoxy)benzonitrile] the EC50 was 2.5 ± 0.7 nM. Work on `CC(=O)Nc1ccc(OC[C@@H]2CN(c3ccc([N+](=O)[O-])c(C)c3)[C@@H](C(F)(F)F)O2)cc1` [Example 54, N-(4-(((2R,5S)-3-(3-methyl-4-nitrophenyl)-2-(trifluoromethyl)oxazolidin-5-yl)methoxy)phenyl)acetamide] yielded an EC50 of 0.86 nM. With `Cc1cc(N2C[C@@H](COc3ccc(C#N)nc3)O[C@@H]2C(F)(F)F)ccc1[N+](=O)[O-]` [Example 55, 5-(((2R,5S)-3-(3-methyl-4-nitrophenyl)-2-(trifluoromethyl)oxazolidin-5-yl)methoxy)picolinonitrile] the EC50 was 4.49 nM. Work on `N#Cc1ccc(OC[C@@H]2CN(c3ccc(Cl)c(Cl)c3)[C@@H](C(F)(F)F)O2)cc1` [Example 63, 4-(((2R,5S)-3-(3,4-dichlorophenyl)-2-(trifluoromethyl)oxazolidin-5-yl)methoxy)benzonitrile] yielded an EC50 of 36.3 nM. Work on `N#Cc1ccc(OC[C@@H]2CN(c3ccc([N+](=O)[O-])c(C(F)(F)F)c3)[C@@H](C(F)(F)F)O2)cc1` [Example 64, 4-(((2R,5S)-3-(4-nitro-3-(trifluoromethyl)phenyl)-2-(trifluoromethyl)oxazolidin-5-yl)methoxy)benzonitrile] yielded an EC50 of 34 nM. `N#Cc1ccc(OC[C@@H]2CN(c3ccc([N+](=O)[O-])c(C(F)(F)F)c3)[C@@H](C(F)(F)F)O2)cn1` [Example 65, 5-(((2R,5S)-3-(4-nitro-3-(trifluoromethyl)phenyl)-2-(trifluoromethyl)oxazolidin-5-yl)methoxy)picolinonitrile] was tested, and the EC50 was 59.5 nM. For `O=[N+]([O-])c1ccc(N2C[C@@H](COc3ccncc3)O[C@@H]2C(F)(F)F)cc1C(F)(F)F` [Example 66, (2R,5S)-3-(4-nitro-3-(trifluoromethyl)phenyl)-5-((pyridin-4-yloxy)methyl)-2-(trifluoromethyl)oxazolidine], the EC50 was 19.9 nM.

Same assay, conditions: EC50 [nM] (mean ± SE), CHO cells with hAR and ARE-Luc, 24 hours; 10 nM DHT = 100%
`N#Cc1ccc(N2C[C@@H](COc3ccc(N)cc3)O[C@@H]2C(F)(F)F)cc1C(F)(F)F` [Example 14, 4-((2R,5S)-5-((4-aminophenoxy)methyl)-2-(trifluoromethyl)oxazolidin-3-yl)-2-(trifluoromethyl)benzonitrile] showed an EC50 of 111 nM. `N#Cc1ccc(N2C[C@@H](COc3ccc(NC(N)=O)cc3)O[C@@H]2C(F)(F)F)cc1C(F)(F)F` [Example 15, 1-(4-(((2R,5S)-3-(4-cyano-3-(trifluoromethyl)phenyl)-2-(trifluoromethyl)oxazolidin-5-yl)methoxy)phenyl)urea] gave an EC50 of 15.7 nM. `CNC(=O)Nc1ccc(OC[C@@H]2CN(c3ccc(C#N)c(C(F)(F)F)c3)[C@@H](C(F)(F)F)O2)cc1` [Example 16, 1-(4-(((2R,5S)-3-(4-cyano-3-(trifluoromethyl)phenyl)-2-(trifluoromethyl)oxazolidin-5-yl)methoxy)phenyl)-3-methylurea] was tested, and the EC50 was 21.3 nM. With `N#Cc1ccc(N2C[C@@H](COc3ccc(N4CCCC4=O)cc3)O[C@@H]2C(F)(F)F)cc1C(F)(F)F` [Example 17, 4-((2R,5S)-5-((4-(2-oxopyrrolidin-1-yl)phenoxy)methyl)-2-(trifluoromethyl)oxazolidin-3-yl)-2-(trifluoromethyl)benzonitrile] the EC50 was 24 nM. `N#Cc1ccc(N2C[C@@H](COc3ccc(-c4nnco4)cc3)O[C@@H]2C(F)(F)F)cc1C(F)(F)F` [Example 18, 4-((2R,5S)-5-((4-(1,3,4-oxadiazol-2-yl)phenoxy)methyl)-2-(trifluoromethyl)oxazolidin-3-yl)-2-(trifluoromethyl)benzonitrile] showed an EC50 of 18.6 nM. Work on `N#Cc1ccc(N2C[C@@H](COc3ccc(C(F)(F)F)cc3)O[C@@H]2C(F)(F)F)cc1C(F)(F)F` [Example 37, 2-(trifluoromethyl)-4-((2R,5S)-2-(trifluoromethyl)-5-((4-(trifluoromethyl)phenoxy)methyl)oxazolidin-3-yl)benzonitrile] yielded an EC50 of 31.6 nM. `N#Cc1ccc(N2C[C@@H](COc3ccc(N4CCOC4=O)cc3)O[C@@H]2C(F)(F)F)cc1C(F)(F)F` [Example 38, 4-((2R,5S)-5-((4-(2-oxooxazolidin-3-yl)phenoxy)methyl)-2-(trifluoromethyl)oxazolidin-3-yl)-2-(trifluoromethyl)benzonitrile] was tested, and the EC50 was 165 nM. In the case of `CS(=O)(=O)Nc1ccc(OC[C@@H]2CN(c3ccc(C#N)c(C(F)(F)F)c3)[C@@H](C(F)(F)F)O2)cc1` [Example 39, N-(4-(((2R,5S)-3-(4-cyano-3-(trifluoromethyl)phenyl)-2-(trifluoromethyl)oxazolidin-5-yl)methoxy)phenyl)methanesulfonamide], the EC50 is reported as 42.6 nM. For `CN(C)C(=O)Nc1ccc(OC[C@@H]2CN(c3ccc(C#N)c(C(F)(F)F)c3)[C@@H](C(F)(F)F)O2)cc1` [Example 40, 3-(4-(((2R,5S)-3-(4-cyano-3-(trifluoromethyl)phenyl)-2-(trifluoromethyl)oxazolidin-5-yl)methoxy)phenyl)-1,1-dimethylurea], the EC50 was 438 nM. Compound `CCOC(=O)Nc1ccc(OC[C@@H]2CN(c3ccc(C#N)c(C(F)(F)F)c3)[C@@H](C(F)(F)F)O2)cc1` [Example 41, ethyl(4-(((2R,5S)-3-(4-cyano-3-(trifluoromethyl)phenyl)-2-(trifluoromethyl)oxazolidin-5-yl)methoxy)phenyl)carbamate] has an EC50 of 16.2 nM. With `CC(C)OC(=O)Nc1ccc(OC[C@@H]2CN(c3ccc(C#N)c(C(F)(F)F)c3)[C@@H](C(F)(F)F)O2)cc1` [Example 42, isopropyl (4-(((2R,5S)-3-(4-cyano-3-(trifluoromethyl)phenyl)-2-(trifluoromethyl)oxazolidin-5-yl)methoxy)phenyl)carbamate] the EC50 was 514 nM. Compound `N#Cc1ccc(N2C[C@@H](COc3ccc(NC(=O)Oc4ccccc4)cc3)O[C@@H]2C(F)(F)F)cc1C(F)(F)F` [Example 43, phenyl (4-(((2R,5S)-3-(4-cyano-3-(trifluoromethyl)phenyl)-2-(trifluoromethyl)oxazolidin-5-yl)methoxy)phenyl)carbamate] has an EC50 of 21.3 nM. Compound `N#Cc1ccc(OC[C@@H]2CN(c3ccc(C#N)c(C(F)(F)F)c3)[C@H](C(F)(F)F)O2)cn1` [Example 45, 5-(((2S,5S)-3-(4-cyano-3-(trifluoromethyl)phenyl)-2-(trifluoromethyl)oxazolidin-5-yl)methoxy)picolinonitrile] has an EC50 of 44.1 nM. In the case of `N#Cc1cccc(OC[C@@H]2CN(c3ccc(C#N)c(C(F)(F)F)c3)[C@@H](C(F)(F)F)O2)c1` [Example 46, 4-((2R,5S)-5-((3-cyanophenoxy)methyl)-2-(trifluoromethyl)oxazolidin-3-yl)-2-(trifluoromethyl)benzonitrile], the EC50 is reported as 31.5 nM. `N#Cc1ccc(OC[C@@H]2CN(c3ccc(C#N)c(C(F)(F)F)c3)[C@@H]([C@@H](O)C(F)(F)F)O2)cc1` [Example 48, 4-((2R,5S)-5-((4-cyanophenoxy)methyl)-2-((R)-2,2,2-trifluoro-1-hydroxyethyl)oxazolidin-3-yl)-2-(trifluoromethyl)benzonitrile] showed an EC50 of 1520 nM. `N#Cc1ccc(OC[C@@H]2CN(c3ccc(C#N)c(C(F)(F)F)c3)[C@@H]([C@H](O)C(F)(F)F)O2)cc1` [Example 49, 4-((2R,5S)-5-((4-cyanophenoxy)methyl)-2-((S)-2,2,2-trifluoro-1-hydroxyethyl)oxazolidin-3-yl)-2-(trifluoromethyl)benzonitrile] was tested, and the EC50 was 1700 nM. For `N#Cc1ccc(N2C[C@@H](COc3ccc(NC(=O)CN)cc3)O[C@@H]2C(F)(F)F)cc1C(F)(F)F` [Example 50, 2-amino-N-(4-(((2R,5S)-3-(4-cyano-3-(trifluoromethyl)phenyl)-2-(trifluoromethyl)oxazolidin-5-yl)methoxy)phenyl)acetamide 2,2,2-trifluoroacetate], the EC50 was 15.6 nM. Compound `N#Cc1ccc(N2C[C@@H](COc3ccc(NC(=O)[C@@H]4CCCN4)cc3)O[C@@H]2C(F)(F)F)cc1C(F)(F)F` [Example 51, (S)-N-(4-(((2R,5S)-3-(4-cyano-3-(trifluoromethyl)phenyl)-2-(trifluoromethyl)oxazolidin-5-yl)methoxy)phenyl)pyrrolidine-2-carboxamide 2,2,2-trifluoroacetate] has an EC50 of 165 nM. `N#Cc1ccc(N2C[C@@H](COc3ccc(CC(=O)O)cc3)O[C@@H]2C(F)(F)F)cc1C(F)(F)F` [Example 52, 2-(4-(((2R,5S)-3-(4-cyano-3-(trifluoromethyl)phenyl)-2-(trifluoromethyl)oxazolidin-5-yl)methoxy)phenyl)acetic acid] showed an EC50 of 759 nM. `N#Cc1ccc(N2C[C@@H](COc3ccccc3)O[C@@H]2C(F)(F)F)cc1C(F)(F)F` [Example 58, 4-((2R,5S)-5-(phenoxymethyl)-2-(trifluoromethyl)oxazolidin-3-yl)-2-(trifluoromethyl)benzonitrile] gave an EC50 of 107 nM. `N#Cc1ccc(N2C[C@@H](COc3ccncc3)O[C@@H]2C(F)(F)F)cc1C(F)(F)F` [Example 59, 4-((2R,5S)-5-((pyridin-4-yloxy)methyl)-2-(trifluoromethyl)oxazolidin-3-yl)-2-(trifluoromethyl)benzonitrile] showed an EC50 of 3.25 nM. Work on `N#Cc1ccc(N2C[C@@H](COc3cccnc3)O[C@@H]2C(F)(F)F)cc1C(F)(F)F` [Example 60, 4-((2R,5S)-5-((pyridin-3-yloxy)methyl)-2-(trifluoromethyl)oxazolidin-3-yl)-2-(trifluoromethyl)benzonitrile] yielded an EC50 of 10.4 nM. With `N#Cc1ccc(N2C[C@@H](COc3ccc(CO)cc3)O[C@@H]2C(F)(F)F)cc1C(F)(F)F` [Example 67, 4-((2R,5S)-5-((4-(hydroxymethyl)phenoxy)methyl)-2-(trifluoromethyl)oxazolidin-3-yl)-2-(trifluoromethyl)benzonitrile] the EC50 was 3.93 nM.
